Laboratory results published in patent US7915223B2, “Antimicrobial agents” (priority 2004, dated 2011).
Where two headings read alike, the source gives them in different places. Bridge positions count the residues as written; N and C are the ends. Ends that are not written are not given here. Peptide text beside a SMILES is read from it.

Columns and labels:
[1] = Hydrophobicity estimation by reversed-phase HPLC (percent acetonitrile at elution); assay type: physicochemical; settings: percent of acetonitrile at which the polymer was eluted on reversed-phase C18 HPLC
Experimental: HPLC chromatograms were performed on C18 columns (Vydak, 250 mm×4.6 or 10 mm) using a linear gradient of acetonitrile in water (1% per minute), both solvents contained 0.1% trifluoroacetic acid. The purified polymers were subjected to mass spectrometry (ZQ Waters) to confirm their composition and stored as a lyophilized powder at −20° C. Prior to being tested, fresh solutions were prepared in water, mixed by vortex, solubilized by ultrasound, centrifuged and then diluted in the appropriate medium.
In order to estimate the hydrophobicity of each polymer, the polymer was eluted with a linear gradient of acetonitrile (1% per minute) on an HPLC reversed-phase C18 column, and the percent of acetonitrile at which the polymer was eluted was used for hydrophobicity estimation (see, “ACN (%)” in Table 3 below).

[2] = tested on: microorganisms in the saliva of healthy human volunteers; settings: fresh human saliva 1:1 with 100 μM agent, pH 5
Experimental: A solution of the saliva with no anti-bacterial agent served as a control. […] Each of the solutions was spread over a LA plate, and the plated saliva samples were incubated overnight at 37° C. without aeration. The colonies were enumerated and counted to determine the microbicidal effect of the drug. The values of viable colony forming units (CFU) were determined as described above.

[3] = Hemolysis assay; assay type: cell-based, human; settings: lytic concentration inducing 50% lysis of human red blood cells in PBS, read-out: LC50 (the source's name)
Experimental: (§1) The polymer's membranolytic potential was determined against human red blood cells (RBC) in phosphate buffer solution (PBS).
(§2) Alternatively, a 10% hematocrit was used and hemolysis was determined after one hour incubation.

[4] = tested on: human red blood cells (RBC); experiment: Hemolysis assay; assay type: cell-based; settings: human RBC, 10% hematocrit, 1 hour at 37° C., 31 μM, 94 μM and 156 μM
Experimental: as §1, §2

## CC(C)C[C@H](NC(=O)CNC(=O)CNC(=O)[C@@H](N)CCCNC(=N)N)C(=O)N[C@H]1CSSC[C@@H](C(=O)N[C@H](C(=O)NCC(=O)N[C@@H](CCCNC(=N)N)C(N)=O)C(C)C)NC(=O)[C@H](C(C)C)NC(=O)[C@@H]2CSSC[C@H](NC(=O)[C@H](Cc3ccc(O)cc3)NC1=O)C(=O)N[C@@H](CCCNC(=N)N)C(=O)NCC(=O)N[C@@H](CCCNC(=N)N)C(=O)N[C@@H](Cc1ccccc1)C(=O)N2 [IB-367] (H-RGGLCYCRGRFCVCVGR-NH2; disulfide 5-14, 7-12)
[1]
  ACN (%): 45%
[2]
  growth of saliva microorganisms (CFU per ml versus incubation time): inhibited but proliferation is resumed after 30 minutes
[3]
  HC50: 7 µM

## CC[C@H](C)[C@H](NC(=O)[C@H](CCC(=O)O)NC(=O)[C@H](CCC(=O)O)NC(=O)[C@H](Cc1ccccc1)NC(=O)[C@H](CC(=O)O)NC(=O)CNC(=O)[C@H](CC(N)=O)NC(=O)CNC(=O)CNC(=O)CNC(=O)CNC(=O)[C@@H]1CCCN1C(=O)[C@H](CCCNC(=N)N)NC(=O)[C@@H]1CCCN1C(=O)[C@H](N)Cc1ccccc1)C(=O)N1CCC[C@H]1C(=O)N[C@@H](CCC(=O)O)C(=O)N[C@@H](CCC(=O)O)C(=O)N[C@@H](Cc1ccc(O)cc1)C(=O)N[C@@H](CC(C)C)C(=O)O [bivalirudin]
[4]
  hemolytic activity: merely a “background level” activity

## GIGKFLKKAKKFGKAFVKILKK-NH2 [MSI-78]
[4]
  hemolytic activity: high degree of hemolysis
[3]; red blood cells (RBC)
  HC50: 45 µM
